The subject of this assay is Wnt/β-catenin signaling. Put plainly: TOPFlash reporter assay in 293FT cells. It counts as cell-based, human. The following applies: 1 μM 6BIO together with drug at indicated concentrations, 24 hours. The protocol:
TOPFlash assay was performed in 96-well plate. For each well, 293T cells were transfected with 0.22 μg TOPFlash (or FOPFlash with mutant TCF binding sites) and 0.02 μg pRL-SV40P using lipofectamine 3000. For co-transfection with other plasmids, 0.1 μg additional DNA was used. […] The luciferase activity was measured 24 hours later by using Dual-Glo® Luciferase Assay System (Promega, E2940) according to the recommended protocol. The TOPFlash or FOPFlash activity was normalized to Renilla luciferase signals.
TOPFlash assay was performed as described above. Briefly, for each well of a 96-well plate 293FT cells were transfected with 0.22 μg TOPFlash (or FOPFlash with mutant TCF binding sites) and 0.02 μg pRL-SV40P using lipofectamine 3000. For co-transfection with other plasmids, 0.1 μg additional DNA was used. Four hours after transfection, 293FT cells were treated with DMSO, 1 μM 6B10 and 1 μM 6B10 together with pazopanib, orlistat and topotecan at varying concentrations for 24 hours. The luciferase activity was then measured using Dual-Glo® Luciferase Assay System (Promega, E2940) according to the recommended protocol. The TOPFlash or FOPFlash activity was normalized to Renilla luciferase signals.
Background: Reporter assays use an easily measured gene product as a stand-in for the process of interest.

As to `CNC(=O)c1ccccc1Sc1ccc2c(/C=C/c3ccccn3)n[nH]c2c1` [axitinib, N-Methyl-2-[[3-[(E)-2-pyridin-2-ylethenyl]-1H-indazol-6-yl]sulfanyl]benzamide], the “TOPFlash activity normalized to Renilla luciferase activity” value is listed as “dose dependently inhibits”.

Values taken from patent publication US20180344715A1, “WNT/BETA-CATENIN SIGNAL TRANSDUCTION INHIBITORS AND THEIR USE IN TREATMENT OR PREVENTION OF DISEASES AND CONDITIONS LINKED WITH SAID TRANSDUCTION” (BERGEN TEKNOLOGIOVERFORING AS, priority 2015, published 2018).
